Source: PubChem BioAssay AID1259407 (Chemical Carcinogenesis Research Information System (CCRIS), 2018)
Active and inactive are the calls of the source. The rule behind the calls is not given here.

Tested on: CCRIS mutagenicity, Ames/micronucleus/aberration tests
Experiment: CCRIS mutagenicity studies

Compound	mutagenic call (End Point: IN VITRO CHROMOSOMAL ABERRATIONS, Test System: CHINESE HAMSTER CELL DON (22;XY), Metabolic Activation: NONE)	mutagenic call (Test System: AMES SALMONELLA TYPHIMURIUM, Strain/Indicator: TA98, Metabolic Activation: NONE, Method: STANDARD PLATE)	mutagenic call (Test System: AMES SALMONELLA TYPHIMURIUM, Strain/Indicator: TA98, Metabolic Activation: RAT, LIVER, S-9, Method: STANDARD PLATE)	mutagenic call (Test System: AMES SALMONELLA TYPHIMURIUM, Strain/Indicator: TA100, Metabolic Activation: NONE, Method: STANDARD PLATE)	mutagenic call (Test System: AMES SALMONELLA TYPHIMURIUM, Strain/Indicator: TA100, Metabolic Activation: RAT, LIVER, S-9, Method: STANDARD PLATE)	mutagenic call (Test System: AMES SALMONELLA TYPHIMURIUM, Strain/Indicator: TA1535, Metabolic Activation: NONE, Method: STANDARD PLATE)	mutagenic call (Test System: AMES SALMONELLA TYPHIMURIUM, Strain/Indicator: TA1535, Metabolic Activation: RAT, LIVER, S-9, Method: STANDARD PLATE)	mutagenic call (Test System: AMES SALMONELLA TYPHIMURIUM, Strain/Indicator: TA1537, Metabolic Activation: NONE, Method: STANDARD PLATE)	mutagenic call (Test System: AMES SALMONELLA TYPHIMURIUM, Strain/Indicator: TA1537, Metabolic Activation: RAT, LIVER, S-9, Method: STANDARD PLATE)	mutagenic call (Test System: AMES SALMONELLA TYPHIMURIUM, Strain/Indicator: TA1538, Metabolic Activation: NONE, Method: STANDARD PLATE)	mutagenic call (Test System: AMES SALMONELLA TYPHIMURIUM, Strain/Indicator: TA1538, Metabolic Activation: RAT, LIVER, S-9, Method: STANDARD PLATE)	mutagenic call (Test System: AMES SALMONELLA TYPHIMURIUM, Strain/Indicator: TA98, Metabolic Activation: NONE, Method: SUSPENSION/PLATE)	mutagenic call (Test System: AMES SALMONELLA TYPHIMURIUM, Strain/Indicator: TA100, Metabolic Activation: NONE, Method: SUSPENSION/PLATE)
C/C=C(/C(=C/C)c1ccc(O)cc1)c1ccc(O)cc1	active; positive (ploidy changes)	inactive; negative	inactive; negative	inactive; negative; toxicity at 100 ug/plate	inactive; negative; toxicity at 100 ug/plate	inactive; negative; toxicity at 50 ug/plate	inactive; negative; toxicity at 100 ug/plate	inactive; negative	inactive; negative	inactive; negative	inactive; negative; toxicity at 100 ug/plate	–	–
CCC[CH2][Sn]([Cl])([Cl])[CH2]CCC	–	–	–	–	–	–	–	–	–	–	–	inactive; negative	inactive; negative
